Laboratory results: US7914821B2, “Pharmaceutical composition for prevention and/or treatment of bone loss” (KO DA Pharmaceuticals Co., Ltd., priority 2008, dated 2011)

What was measured:
Format in all cases: cell-based, rat
[1] = test system: Bone cells; test: Effect of p38 and ERK inhibitors on ALP activity in bone cells; settings: 10 μM inhibitor with 10 μM imperatorin or bergapten, 48 hrs; FIG. 11C
Procedure: (§1) Rat primary osteoblast was isolated from the parietal bone of gestation day 18 embryos of Sprague-Dawley rats. After being slaughtered, the embryo rats were obtained from the uteruses of the rats, and calvarium was isolated from the embryo rats. Parietal bone was cut from the calvarium and digested by 0.1% collagenase for 20 minutes to release the bone cells from the bone tissue. The digestion step was repeated five times. The collected bone cells were cultured in α-MEM containing 1% penicillin-streptomycin and 10% FBS in a humidified atmosphere of 5 percent carbon dioxide. When cells were attached and confluence, they were sub-cultured, which was called “passage 2 (P2)”. The passage was for analogizing. 2 to 5 passage cells were used for the experiments.
Bone cells were cultured and treated with (1) 10 μM SB203580, (2) 10 μM PD98059, (3) 10 μM imperatori, (4) 10 μM bergapten, (5) 10 μM imperatorin+SB203580, (6) 10 μM bergapten+SB203580, (7) 10 μM imperatorin+PD98059 ? (8) 10 μM bergapten+PD98059 for 48 hrs. After treatment, the bone cells were lysed in 0.2% […] solution and centrifuged at 1500×g for 5 minutes. The supernatant was analyzed by an ALP kit such as described above to obtain the ALP activity. The ALP activity in the control group which was treated with 0.1% DMSO was defined as 100%. […]

[2] = test system: p38; test: Effect of p38 inhibitor on induced phosphorylation of p38; settings: inhibitor for 30 minutes before imperatorin and bergapten; FIGS. 11A-11B
Procedure: Bone cells was cultured in 6-well plate and treated with 10 μM of imperatorin and bergapten for 1, 3, 6, 12, and 24 hrs, respectively. […] 30 μg of proteins were dissolved in 5× Laemmli buffer, boiled at 95° C. for 5 minutes, and then subjected to SDS-PAGE gel (8%) electrophoresis. Proteins on the gel were then transferred to a PVDF membrane. The PVDF membrane was blocked in 4% BSA solution for 1 hour at room temperature. The blocked membrane was then incubated in PBST buffer (0.1% Tween-20) containing p-SMAD, p-ERK, or p38 primary antibody. Following incubation with primary antibody, the membrane was washed three times with PBST, and then incubated for 1 hr at room temperature with the secondary antibody, an anti-mouse or anti-goat IgG labeled with horseradish peroxidase. Following incubation with the secondary antibody, the membrane was washed three times with PBST, and detected by an enzyme-linked chemiluminescence using an ECL blotting substrate according to the manufacturer's instructions.
In the control group, a non-phosphorylation p38 and non-phosphorylation EPK proteins were subjected to SDS-PAGE gel electrophoresis.

[3] = test system: EPK protein; test: Effect of ERK inhibitor on induced phosphorylation of EPK protein; settings: inhibitor for 30 minutes before imperatorin and bergapten; FIGS. 11A-11B
Procedure: Bone cells was cultured in 6-well plate and treated with 10 μM of imperatorin and bergapten for 1, 3, 6, 12, and 24 hrs, respectively. After treatment, the culture medium was replaced with a lysis buffer containing 50 mM HEPES (PH 7.4), 150 mM NaCl, 4 mM EDTA, 10 mM Na4P2O7, 100 mM NaF, 2 mM Na3VO4, 1% (v/v) Triton X-100, 0.25% (w/v) sodium deoxycholate, 50 mM 4-(2-aminoethyl)benzene sulfonylfluoride, 50 μg/ml leupeptin, and 20 μg/ml aprotinin, and then centrifuged at 13000 rpm for 15 minutes to obtain the protein pellets. 30 μg of proteins were dissolved in 5× Laemmli buffer, boiled at 95° C. for 5 minutes, and then subjected to SDS-PAGE gel (8%) electrophoresis. Proteins on the gel were then transferred to a PVDF membrane. The PVDF membrane was blocked in 4% BSA solution for 1 hour at room temperature. The blocked membrane was then incubated in PBST buffer (0.1% Tween-20) containing p-SMAD, p-ERK, or p38 primary antibody. Following incubation with primary antibody, the membrane was washed three times with PBST, and then incubated for 1 hr at room temperature with the secondary antibody, an anti-mouse or anti-goat IgG labeled with horseradish peroxidase. Following incubation with the secondary antibody, the membrane was washed three times with PBST, and detected by an […] chemiluminescence using an ECL blotting substrate according to the manufacturer's instructions. […]

[4] = test system: Bone cells; test: ALP activity with imperatorin, bergapten and noggin; settings: 1 μg/ml noggin with 10 μM imperatorin or 10 μM bergapten, 48 hrs; FIG. 9C
Procedure: as §1
Bone cells were treated with (1) 10 μM imperatorin, (2) 10 μM bergapten, (3) 10 μM imperatorin+noggin, (4) 10 μM bergapten+noggin, and (5) 1 μg/ml noggin for 48 his, respectively. After treatment, the bone cells were lysed in 0.2% […] solution, and then centrifuged at 1500×g for 5 minutes to obtain a supernatant. The supernatant was analyzed by ALP kit as described above to obtain the ALP activity. The ALP activity in the control group which was treated with 0.1% DMSO was defined as 100%. Referring to FIG. 9C, noggin suppressed the imperatorin or bergapten induced-ALP activity.

Molecule | imperatorin and bergapten induced-ALP activity [1] | imperatorin and bergapten induced-phosphorylation (p38) [2] | imperatorin and bergapten induced-phosphorylation (EPK protein) [3] | imperatorin or bergapten induced-ALP activity [4]
C[S+]([O-])c1ccc(-c2nc(-c3ccncc3)c(-c3ccc(F)cc3)[nH]2)cc1 (centres unmarked) [SB203580] | suppressed | suppressed | – | –
COc1cccc(-c2cc(=O)c3ccccc3o2)c1N [PD98059] | suppressed | – | suppressed | –
noggin: noggin, 1 μg/ml, suppressed the imperatorin or bergapten induced-ALP activity (protein, UniProt Q13253 28-232, looked up) Noggin: QHYLHIRPAPSDNLPLVDLIEHPDPIFDPKEKDLNETLLRSLLGGHYDPGFMATSPPEDRPGGGGGAAGGAEDLAELDQLLRQRPSGAMPSEIKGLEFSEGLAQGKKQRLSKKLRRKLQMWLWSQTFCPVLYAWNDLGSRFWPRYVKVGSCFSKRSCSVPEGMVCKPSKSVHLTVLRWRCQRRGGQRCGWIPIQYPIISECKCSC | – | – | – | suppressed
